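Tested at 5 concentrations; 48 h exposure; 96-well plates; endpoints linearly interpolated, else capped at highest concentration. Here, GI50 denotes the concentration required for 50% inhibition of growth. TGI: total growth inhibition.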
Experiments:
Assay in all cases: inhibition of tumour cell growth, NCI panel, 48 h
786-0 renal = system: 786-0 renal
A498 renal = system: A498 renal
A549 NSCLC = system: A549 NSCLC
ACHN renal = system: ACHN renal
BT-549 breast = system: BT-549 breast
CAKI-1 renal = system: CAKI-1 renal
CCRF-CEM leukemia = system: CCRF-CEM leukemia
COLO 205 colon = system: COLO 205 colon
DU-145 prostate = system: DU-145 prostate
EKVX NSCLC = system: EKVX NSCLC
HCC-2998 colon = system: HCC-2998 colon
HCT-116 colon = system: HCT-116 colon
HCT-15 colon = system: HCT-15 colon
HL-60(TB) leukemia = system: HL-60(TB) leukemia
HOP-62 NSCLC = system: HOP-62 NSCLC
HOP-92 NSCLC = system: HOP-92 NSCLC
HS 578T breast = system: HS 578T breast
HT29 colon = system: HT29 colon
IGROV1 ovarian = system: IGROV1 ovarian
K-562 leukemia = system: K-562 leukemia
KM12 colon = system: KM12 colon
LOX IMVI melanoma = system: LOX IMVI melanoma
M14 melanoma = system: M14 melanoma
MALME-3M melanoma = system: MALME-3M melanoma
MCF7 breast = system: MCF7 breast
MDA-MB-231 breast = system: MDA-MB-231 breast
MDA-MB-435 = system: MDA-MB-435
MOLT-4 leukemia = system: MOLT-4 leukemia
NCI-H226 lung = system: NCI-H226 lung
NCI-H23 lung = system: NCI-H23 lung
NCI-H460 lung = system: NCI-H460 lung
NCI-H522 lung = system: NCI-H522 lung
NCI/ADR-RES ovarian = system: NCI/ADR-RES ovarian
OVCAR-4 ovarian = system: OVCAR-4 ovarian
OVCAR-5 ovarian = system: OVCAR-5 ovarian
OVCAR-8 ovarian = system: OVCAR-8 ovarian
PC-3 prostate = system: PC-3 prostate
RPMI-8226 leukemia = system: RPMI-8226 leukemia
RXF 393 renal = system: RXF 393 renal
SF-268 CNS = system: SF-268 CNS
SF-295 CNS = system: SF-295 CNS
SF-539 CNS = system: SF-539 CNS
SK-MEL-2 melanoma = system: SK-MEL-2 melanoma
SK-MEL-28 melanoma = system: SK-MEL-28 melanoma
SK-MEL-5 melanoma = system: SK-MEL-5 melanoma
SK-OV-3 ovarian = system: SK-OV-3 ovarian
SN12C renal = system: SN12C renal
SNB-19 CNS = system: SNB-19 CNS
SNB-75 CNS = system: SNB-75 CNS
SR leukemia = system: SR leukemia
SW-620 colon = system: SW-620 colon
T-47D breast = system: T-47D breast
TK-10 renal = system: TK-10 renal
U251 CNS = system: U251 CNS
UACC-257 melanoma = system: UACC-257 melanoma
UACC-62 melanoma = system: UACC-62 melanoma
UO-31 renal = system: UO-31 renal

Work on `CN(C)CCNC(=O)c1ccc(-c2nc3ccc4[nH]ncc4c3c3c2CCC3)cc1` yielded a GI50 (786-0 renal) of 882 nM, a TGI (786-0 renal) of 5610 nM and a GI50 (A498 renal) of 281 nM. The TGI (A498 renal) was 1070 nM, the GI50 (A549 NSCLC) was 1260 nM and the TGI (A549 NSCLC) was 6780 nM. For the same molecule, the GI50 (ACHN renal) was 844 nM, the TGI (ACHN renal) was 6860 nM and the GI50 (BT-549 breast) was 650 nM. It also gave a TGI (BT-549 breast) of 1430 nM, a GI50 (CAKI-1 renal) of 263 nM and a TGI (CAKI-1 renal) of 5540 nM. For the same molecule, the GI50 (CCRF-CEM leukemia) was 857 nM, the TGI (CCRF-CEM leukemia) was 28700 nM and the GI50 (COLO 205 colon) was 507 nM. It also gave a TGI (COLO 205 colon) of 2230 nM, a GI50 (DU-145 prostate) of 760 nM and a TGI (DU-145 prostate) of 5010 nM. The GI50 (EKVX NSCLC) was 891 nM, the TGI (EKVX NSCLC) was 5010 nM and the GI50 (HCC-2998 colon) was 1250 nM. The TGI (HCC-2998 colon) was 5680 nM, the GI50 (HCT-116 colon) was 331 nM and the TGI (HCT-116 colon) was 4340 nM. For the same molecule, the GI50 (HCT-15 colon) was 1610 nM, the TGI (HCT-15 colon) was 7630 nM and the GI50 (HL-60(TB) leukemia) was 992 nM. For the same molecule, the TGI (HL-60(TB) leukemia) was 3340 nM, the GI50 (HOP-62 NSCLC) was 593 nM and the TGI (HOP-62 NSCLC) was 2670 nM. It also gave a GI50 (HOP-92 NSCLC) of 343 nM, a TGI (HOP-92 NSCLC) of 1840 nM and a GI50 (HS 578T breast) of 549 nM. For the same molecule, the TGI (HS 578T breast) was 1990 nM, the GI50 (HT29 colon) was 1290 nM and the TGI (HT29 colon) was 6130 nM. For the same molecule, the GI50 (IGROV1 ovarian) was 684 nM, the TGI (IGROV1 ovarian) was 5400 nM and the GI50 (K-562 leukemia) was 1110 nM. For the same molecule, the TGI (K-562 leukemia) was 20100 nM, the GI50 (KM12 colon) was 1080 nM and the TGI (KM12 colon) was 4620 nM. For the same molecule, the GI50 (LOX IMVI melanoma) was 616 nM, the TGI (LOX IMVI melanoma) was 1500 nM and the GI50 (M14 melanoma) was 961 nM. For the same molecule, the TGI (M14 melanoma) was 6080 nM, the GI50 (MALME-3M melanoma) was 1260 nM and the TGI (MALME-3M melanoma) was 4130 nM. It also gave a GI50 (MCF7 breast) of 657 nM, a TGI (MCF7 breast) of 5250 nM and a GI50 (MDA-MB-231 breast) of 927 nM. The TGI (MDA-MB-231 breast) was 2840 nM, the GI50 (MDA-MB-435) was 1130 nM and the TGI (MDA-MB-435) was 6990 nM. For the same molecule, the GI50 (MOLT-4 leukemia) was 1040 nM, the TGI (MOLT-4 leukemia) was 15300 nM and the GI50 (NCI-H226 lung) was 1010 nM. It also gave a TGI (NCI-H226 lung) of 6340 nM, a GI50 (NCI-H23 lung) of 1190 nM and a TGI (NCI-H23 lung) of 3940 nM. The GI50 (NCI-H460 lung) was 1280 nM, the TGI (NCI-H460 lung) was 5170 nM and the GI50 (NCI-H522 lung) was 387 nM. It also gave a TGI (NCI-H522 lung) of 1320 nM, a GI50 (NCI/ADR-RES ovarian) of 9070 nM and a TGI (NCI/ADR-RES ovarian) of 50000 nM. It also gave a GI50 (OVCAR-4 ovarian) of 1330 nM, a TGI (OVCAR-4 ovarian) of 5480 nM and a GI50 (OVCAR-5 ovarian) of 1400 nM. It also gave a TGI (OVCAR-5 ovarian) of 7340 nM, a GI50 (OVCAR-8 ovarian) of 854 nM and a TGI (OVCAR-8 ovarian) of 5800 nM. The GI50 (PC-3 prostate) was 717 nM, the TGI (PC-3 prostate) was 4960 nM and the GI50 (RPMI-8226 leukemia) was 1190 nM. For the same molecule, the TGI (RPMI-8226 leukemia) was 4140 nM, the GI50 (RXF 393 renal) was 279 nM and the TGI (RXF 393 renal) was 1100 nM. It also gave a GI50 (SF-268 CNS) of 634 nM, a TGI (SF-268 CNS) of 2140 nM and a GI50 (SF-295 CNS) of 1340 nM. The TGI (SF-295 CNS) was 5380 nM, the GI50 (SF-539 CNS) was 606 nM and the TGI (SF-539 CNS) was 1740 nM. The GI50 (SK-MEL-2 melanoma) was 850 nM, the TGI (SK-MEL-2 melanoma) was 1830 nM and the GI50 (SK-MEL-28 melanoma) was 1310 nM. For the same molecule, the TGI (SK-MEL-28 melanoma) was 5340 nM, the GI50 (SK-MEL-5 melanoma) was 1600 nM and the TGI (SK-MEL-5 melanoma) was 5980 nM. It also gave a GI50 (SK-OV-3 ovarian) of 288 nM, a TGI (SK-OV-3 ovarian) of 3040 nM and a GI50 (SN12C renal) of 1130 nM. For the same molecule, the TGI (SN12C renal) was 4150 nM, the GI50 (SNB-19 CNS) was 1470 nM and the TGI (SNB-19 CNS) was 6210 nM. For the same molecule, the GI50 (SNB-75 CNS) was 543 nM, the TGI (SNB-75 CNS) was 2040 nM and the GI50 (SR leukemia) was 140 nM. For the same molecule, the TGI (SR leukemia) was 2820 nM, the GI50 (SW-620 colon) was 611 nM and the TGI (SW-620 colon) was 3610 nM. It also gave a GI50 (T-47D breast) of 1370 nM, a TGI (T-47D breast) of 9660 nM and a GI50 (TK-10 renal) of 295 nM. The TGI (TK-10 renal) was 5380 nM, the GI50 (U251 CNS) was 1020 nM and the TGI (U251 CNS) was 6510 nM. For the same molecule, the GI50 (UACC-257 melanoma) was 2310 nM, the TGI (UACC-257 melanoma) was 8360 nM and the GI50 (UACC-62 melanoma) was 1100 nM. The TGI (UACC-62 melanoma) was 6100 nM, the GI50 (UO-31 renal) was 1070 nM and the TGI (UO-31 renal) was 4660 nM.

— PubChem BioAssay (NCI)
